Data published in PubChem BioAssay AID2060620 (Molecular Pharmacology Branch, DTP, NCI, 2025).
pIC50: −log10 of the molar value. “And” between values parts separate entries of the source, which are not always exact repeats. Identical values can stand only once. One block for each molecule: values may come before it.

Tested on: 328373-195-R-J1-PDC complex spheroids, viability % test/control
Assay: Anticancer human tumor 328373-195-R-J1-PDC patient-derived head and neck squamous carcinoma cell line growth inhibition [CLK]
Conditions: for viability, T/C: stronger effect = lower value
Text: A high-throughput screen of multi-cell type tumor spheroids was designed to identify active combinations of […] and targeted small molecules. Complex spheroids include a stromal component modeled by human endothelial cells (HUVEC) and fibroblasts modeled by human mesenchymal stem cells (MSCs). The concentration ranges selected for each drug and investigational agent were based upon clinically achievable concentrations if the clinical Cmax of the agent was known.
Compounds. The drugs and investigational agents: cirtuvivint (SM08502; NSC835563), CC-671 (NSC850746), vemurafenib (NSC761431), tapotoclax (NSC804041), sotorasib (NSC818433), adagrasib (NSC831453), MRTX-1133 (NSC836407), BAY2416964 (NSC825713), copanlisib (NSC816437), inavolisib (NSC800729), abemaciclib (NSC768073), osimertinib (NSC779217), entinostat (NSC756642), eltanexor (KPT-8602, NSC794443), venetoclax (NSC766270), ceralasertib (NSC777638), bortezomib (NSC756655), olaparib (NSC753686), talazoparib (NSC767125), alisertib (NSC759677), peposertib (NSC802822), gemcitabine (NSC613327), 5-fluorouracil (NSC19893), SN-38 (NSC673596), oxaliplatin (NSC266046), paclitaxel (NSC125973), and doxorubicin (NSC123127), were obtained from the National Cancer Institute (NCI) Developmental Therapeutics Program Chemical Repository. The FDA-approved anticancer drug set is available from the Developmental Therapeutics Program at https://dtp.cancer.gov/organization/dscb/obtaining/available plates.htm. […] The stock solutions were prepared in dimethyl sulfoxide (DMSO, Sigma-Aldrich, St. Louis, MO, cat. D2650), except for the platinum complexes which were prepared in saline (Quality Biological, Gaithersburg, MD, cat. 114-055-101), at 800-fold the tested concentration and stored at -70 degrees C prior to their use. All drugs and investigational agents were tested over a range starting from a high concentration at or near the clinical Cmax and decreasing in half-log increments. If the clinical Cmax for an agent had not been determined, the highest concentration tested was 10 microM.
Cell Culture. All cells were maintained in an incubator at 37 degrees C and 5% CO2 with 95% humidity. The PDC lines were cultured according to standard operating procedures established by the NCI PDMR. Briefly, all PDCs were thawed and cultured in Matrigel-coated flasks prepared with a working solution of 1X Ham's F-12 nutrient mix, without supplementation (Invitrogen, Waltham, MA, cat. 11765054), 100 U/mL penicillin-streptomycin (Invitrogen, cat. 15140122), and 2.5% Matrigel (Corning Inc., Corning, NY, cat. 354248) for the first three passages. The 947758-054-R-J2-PDC line was cultured in 6B/Colon 1A media, which includes advanced DMEM/F-12 (Thermo Fisher Scientific, cat. 12634028), 10 mM HEPES (Thermo Fisher Scientific, cat. 15630080), 1X GlutaMAX supplement (Thermo Fisher Scientific, cat. 35050061), 0.1 mg/mL primocin (InvivoGen, cat. ant-pm-2), 10% defined fetal bovine serum, heat inactivated (HyClone Laboratories Inc., cat. SH30070.03HI), 1.25 mM N-Acetyl-L-cysteine (Sigma-Aldrich, cat. A9165), 10 mM nicotinamide (Sigma-Aldrich, cat. N0636), 1X B-27 supplement (Thermo Fisher Scientific, cat. 17504044), 1X N-2 supplement (Thermo Fisher Scientific, cat. 17502048), and 10 microM Y-27632 dihydrochloride (Tocris Bioscience, cat. 1254). The 876862-298-R-J1-PDC was cultured in 6E media, which includes all 6B/Colon 1A media components plus 50% L-WRN conditioned media (ATCC, cat. CRL-3276), 50 ng/mL recombinant human EGF recombinant protein (hEGF; Thermo Fisher Scientific, cat. PHG0311), 10 ng/mL recombinant human fibroblast growth factor 10 (hGFG-10; PeproTech, cat. 100-26), 1 ng/mL recombinant human fibroblast growth factor 2 (hFGF-2; PeproTech, cat. 100-18B), and 1 µM prostaglandin E2 (PGE2; Tocris, cat. 2296). The 227483-062-R1-J1-PDC line was cultured in Panc media, containing all 6E components except hFGF-2, with the addition of 500 nM SB-431542 (Selleckchem, cat. S1067) and 10 nM gastrin (Tocris, cat. 3006). […]
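Also: spheroids exposed to the agents for 7 days.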

- pIC50 (curve of compound): > 7.50
SMILES: CC(=O)O[C@H]1C(=O)[C@@]2(C)[C@H]([C@H](OC(=O)c3ccccc3)[C@]3(O)C[C@H](OC(=O)[C@H](O)[C@@H](NC(=O)c4ccccc4)c4ccccc4)C(C)=C1C3(C)C)[C@]1(OC(C)=O)CO[C@@H]1C[C@@H]2O
- viability, T/C (compound 0.0316 µM): 10.2% and 4.45%
- viability, T/C (compound 0.1 µM): 5.56% and 4.34%
- viability, T/C (compound 0.316 µM): 5.87% and 5.98%
- viability, T/C (compound 1 µM): 10.8% and 8.33%
- viability, T/C (compound 3.16 µM): 14.6% and 9.57%
- viability, T/C (compound 10 µM): 14.7% and 10.1%

- pIC50 (curve of compound): < 5.00
SMILES: C=CC(=O)N1CCN(c2nc(=O)n(-c3c(C)ccnc3C(C)C)c3nc(-c4c(O)cccc4F)c(F)cc23)C(C)C1 (stereo not drawn)
- viability, T/C (compound 0.0316 µM): 84.3% and 93.1%
- viability, T/C (compound 0.1 µM): 89.4% and 95.1%
- viability, T/C (compound 0.316 µM): 93.2% and 106%
- viability, T/C (compound 1 µM): 98.8% and 87.5%
- viability, T/C (compound 3.16 µM): 96.5% and 100%
- viability, T/C (compound 10 µM): 77.4% and 74.5%

- pIC50 (curve of first compound, second compound 0.0316 µM): 5.74
- pIC50 (curve of first compound, second compound 0.1 µM): > 7.50
- pIC50 (curve of first compound, second compound 0.316 µM): > 7.50
- pIC50 (curve of first compound, second compound 1 µM): > 7.50
- pIC50 (curve of first compound, second compound 3.16 µM): > 7.50
- pIC50 (curve of first compound, second compound 10 µM): > 7.50
SMILES: C=C(F)C(=O)N1CCN(c2nc(OCC3CCCN3C)nc3c2CCN(c2cccc4cccc(Cl)c24)C3)CC1CC#N (stereo not drawn) + CNC(=O)c1ccc(Nc2nc(OC3CCCC3)c3c(-c4ccc5nc(C)oc5c4)c[nH]c3n2)c(OC)c1
- viability, T/C (second compound 0.0316 µM, first compound 0.0316 µM): 55%
- viability, T/C (second compound 0.0316 µM, first compound 0.1 µM): 57.6%
- viability, T/C (second compound 0.0316 µM, first compound 0.316 µM): 57%
- viability, T/C (second compound 0.0316 µM, first compound 1 µM): 57.2%
- viability, T/C (second compound 0.0316 µM, first compound 3.16 µM): 43.8%
- viability, T/C (second compound 0.0316 µM, first compound 10 µM): 0.11%
- viability, T/C (second compound 0.1 µM, first compound 0.0316 µM): 11.2%
- viability, T/C (second compound 0.1 µM, first compound 0.1 µM): 9.34%
- viability, T/C (second compound 0.1 µM, first compound 0.316 µM): 8.18%
- viability, T/C (second compound 0.1 µM, first compound 1 µM): 10.4%
- viability, T/C (second compound 0.1 µM, first compound 3.16 µM): 10.7%
- viability, T/C (second compound 0.1 µM, first compound 10 µM): 0.09%
- viability, T/C (second compound 0.316 µM, first compound 0.0316 µM): 10.5%
- viability, T/C (second compound 0.316 µM, first compound 0.1 µM): 8.47%
- viability, T/C (second compound 0.316 µM, first compound 0.316 µM): 10.6%
- viability, T/C (second compound 0.316 µM, first compound 1 µM): 8.2%
- viability, T/C (second compound 0.316 µM, first compound 3.16 µM): 8.71%
- viability, T/C (second compound 0.316 µM, first compound 10 µM): 0.79%
- viability, T/C (second compound 1 µM, first compound 0.0316 µM): 8.55%
- viability, T/C (second compound 1 µM, first compound 0.1 µM): 9.75%
- viability, T/C (second compound 1 µM, first compound 0.316 µM): 8.98%
- viability, T/C (second compound 1 µM, first compound 1 µM): 8.73%
- viability, T/C (second compound 1 µM, first compound 3.16 µM): 11.3%
- viability, T/C (second compound 1 µM, first compound 10 µM): 0.08%
- viability, T/C (second compound 3.16 µM, first compound 0.0316 µM): 11.6%
- viability, T/C (second compound 3.16 µM, first compound 0.1 µM): 10%
- viability, T/C (second compound 3.16 µM, first compound 0.316 µM): 9.7%
- viability, T/C (second compound 3.16 µM, first compound 1 µM): 10.9%
- viability, T/C (second compound 3.16 µM, first compound 3.16 µM): 9.36%
- viability, T/C (second compound 3.16 µM, first compound 10 µM): 0.12%
- viability, T/C (second compound 10 µM, first compound 0.0316 µM): 11.1%
- viability, T/C (second compound 10 µM, first compound 0.1 µM): 11.5%
- viability, T/C (second compound 10 µM, first compound 0.316 µM): 9.68%
- viability, T/C (second compound 10 µM, first compound 1 µM): 10.4%
- viability, T/C (second compound 10 µM, first compound 3.16 µM): 11.6%
- viability, T/C (second compound 10 µM, first compound 10 µM): 0.19%

- pIC50 (curve of compound): < 5.00
SMILES: C#Cc1c(F)ccc2cc(O)cc(-c3ncc4c(N5CC6CCC(C5)N6)nc(OCC56CCCN5CC(F)C6)nc4c3F)c12 (stereo not drawn)
- viability, T/C (compound 0.0316 µM): 99.7% and 97.3%
- viability, T/C (compound 0.1 µM): 85.4% and 93.6%
- viability, T/C (compound 0.316 µM): 108% and 98.6%
- viability, T/C (compound 1 µM): 96.1% and 92.8%
- viability, T/C (compound 3.16 µM): 118% and 111%
- viability, T/C (compound 10 µM): 89.6% and 94.6%
